ChEMBL document CHEMBL5465560, “Selectivity Literature for EUbOPEN Chemogenomic Library” (2024)
Values belong to the molecule of their own block, whether it stands above or below them.

Columns and labels:
[1] = target: Serine/threonine-protein kinase tousled-like 2 (Homo sapiens) (UniProt Q86UE8); experiment: Selectivity interaction (KinomeScan (DiscoverX)) EUB0000655a TLK2; conditions: at 10 µM
[2] = target: T1, Dual specificity tyrosine-phosphorylation-regulated kinase 2 (Homo sapiens) (UniProt Q92630); experiment: Selectivity interaction (KinomeScan (DiscoverX)) EUB0000618a DYRK2; conditions: at 10 µM
T1 sequence (whole entry): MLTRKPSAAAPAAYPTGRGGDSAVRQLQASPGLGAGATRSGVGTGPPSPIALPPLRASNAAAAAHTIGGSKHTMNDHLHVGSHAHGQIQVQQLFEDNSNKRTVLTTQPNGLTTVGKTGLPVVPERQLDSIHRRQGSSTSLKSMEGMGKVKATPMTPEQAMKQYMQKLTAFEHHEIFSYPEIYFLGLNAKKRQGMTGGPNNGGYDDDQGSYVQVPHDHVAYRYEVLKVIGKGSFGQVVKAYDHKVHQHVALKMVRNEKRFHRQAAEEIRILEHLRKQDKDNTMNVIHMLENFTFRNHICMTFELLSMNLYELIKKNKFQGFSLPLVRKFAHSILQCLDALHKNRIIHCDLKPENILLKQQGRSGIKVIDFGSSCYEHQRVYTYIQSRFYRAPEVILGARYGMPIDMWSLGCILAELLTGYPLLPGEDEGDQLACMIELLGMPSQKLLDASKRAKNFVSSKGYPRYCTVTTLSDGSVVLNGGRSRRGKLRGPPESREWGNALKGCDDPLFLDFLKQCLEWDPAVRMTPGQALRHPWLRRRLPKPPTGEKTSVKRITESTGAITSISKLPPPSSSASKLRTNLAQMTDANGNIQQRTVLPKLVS

[3] = target: Casein kinase I isoform gamma-3 (Homo sapiens) (UniProt Q9Y6M4); experiment: Selectivity interaction (KinomeScan (DiscoverX)) EUB0000607a CSNK1G3; conditions: at 10 µM
[4] = target: Ribosomal protein S6 kinase alpha-4 (Homo sapiens) (UniProt O75676); experiment: Selectivity interaction (KinomeScan (DiscoverX)) EUB0001619a RPS6KA4; conditions: at 1 µM
[5] = target: T2, Mitogen-activated protein kinase kinase kinase 3 (Homo sapiens) (UniProt Q99759); experiment: Selectivity interaction (ActivX KiNativ screen (kinase selectivity in THP-1 cell lysates)) EUB0000639a MAP3K3; type: subcellular; conditions: lysate, at 5 µM
T2 sequence (whole entry): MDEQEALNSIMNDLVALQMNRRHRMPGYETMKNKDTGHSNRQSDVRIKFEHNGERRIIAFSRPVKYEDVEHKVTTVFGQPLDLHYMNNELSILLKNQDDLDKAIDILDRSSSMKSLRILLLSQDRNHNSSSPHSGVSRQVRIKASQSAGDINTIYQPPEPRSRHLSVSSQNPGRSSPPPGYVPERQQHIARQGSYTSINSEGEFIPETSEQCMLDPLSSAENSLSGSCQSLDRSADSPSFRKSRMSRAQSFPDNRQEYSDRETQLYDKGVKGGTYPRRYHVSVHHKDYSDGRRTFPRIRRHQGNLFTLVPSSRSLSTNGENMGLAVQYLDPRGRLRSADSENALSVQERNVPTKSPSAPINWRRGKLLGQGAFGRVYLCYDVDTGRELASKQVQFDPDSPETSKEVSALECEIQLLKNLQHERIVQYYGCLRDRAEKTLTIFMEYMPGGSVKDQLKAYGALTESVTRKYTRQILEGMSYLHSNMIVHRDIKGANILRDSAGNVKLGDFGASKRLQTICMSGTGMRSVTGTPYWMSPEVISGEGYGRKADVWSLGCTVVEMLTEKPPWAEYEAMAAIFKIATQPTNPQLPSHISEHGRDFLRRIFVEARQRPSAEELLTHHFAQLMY

[6] = target: Serine/threonine-protein kinase 16 (Homo sapiens, UniProt O75716); experiment: Selectivity interaction (ActivX KiNativ screen (kinase selectivity in THP-1 cell lysates)) EUB0000639a STK16; type: subcellular; conditions: lysate, at 0.2 µM
[7] = target: T3, Serine/threonine-protein kinase 3 (Homo sapiens) (UniProt Q13188); experiment: Selectivity interaction (ActivX KiNativ screen (kinase selectivity in THP-1 cell lysates)) EUB0000639a STK3; type: subcellular; conditions: lysate
T3 sequence (whole entry): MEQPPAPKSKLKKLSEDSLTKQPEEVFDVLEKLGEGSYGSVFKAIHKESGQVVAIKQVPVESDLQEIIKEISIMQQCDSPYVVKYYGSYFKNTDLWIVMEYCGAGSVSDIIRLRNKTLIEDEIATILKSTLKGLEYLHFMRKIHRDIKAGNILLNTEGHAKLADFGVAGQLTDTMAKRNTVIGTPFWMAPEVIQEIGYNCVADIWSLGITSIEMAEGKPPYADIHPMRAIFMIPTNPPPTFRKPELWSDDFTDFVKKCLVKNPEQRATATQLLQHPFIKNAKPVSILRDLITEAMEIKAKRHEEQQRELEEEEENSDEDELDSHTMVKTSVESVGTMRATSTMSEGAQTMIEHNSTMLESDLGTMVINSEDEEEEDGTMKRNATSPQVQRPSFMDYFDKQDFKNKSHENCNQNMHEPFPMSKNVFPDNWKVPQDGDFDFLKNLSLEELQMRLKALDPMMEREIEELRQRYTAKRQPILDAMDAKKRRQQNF

[8] = target: Protein kinase C alpha type (Homo sapiens, UniProt P17252); experiment: Selectivity interaction (Kinase panel (Invitrogen)) EUB0000639a PRKCA; conditions: at 200 nM
[9] = target: Ribosomal protein S6 kinase alpha-1 (Homo sapiens, UniProt Q15418); experiment: Selectivity interaction (ActivX KiNativ screen (kinase selectivity in THP-1 cell lysates)) EUB0000639a RPS6KA1; type: subcellular; conditions: lysate, at 0.2 µM
[10] = target: Homeodomain-interacting protein kinase 1 (Homo sapiens, UniProt Q86Z02); experiment: Selectivity interaction (KinomeScan (DiscoverX)) EUB0000092b HIPK1; conditions: at 10 µM
[11] = target: Mitogen-activated protein kinase 11 (Homo sapiens) (UniProt Q15759); experiment: Selectivity interaction (KinomeScan (DiscoverX)) EUB0000092b MAPK11; conditions: at 10 µM
[12] = target: Phosphatidylinositol 4-kinase alpha (Homo sapiens, UniProt P42356); experiment: Selectivity interaction (Adapta Assay) EUB0001632a PI4KA; conditions: at 10 µM
Chain of Phosphatidylinositol 4-kinase alpha (P42356 whole entry, looked up): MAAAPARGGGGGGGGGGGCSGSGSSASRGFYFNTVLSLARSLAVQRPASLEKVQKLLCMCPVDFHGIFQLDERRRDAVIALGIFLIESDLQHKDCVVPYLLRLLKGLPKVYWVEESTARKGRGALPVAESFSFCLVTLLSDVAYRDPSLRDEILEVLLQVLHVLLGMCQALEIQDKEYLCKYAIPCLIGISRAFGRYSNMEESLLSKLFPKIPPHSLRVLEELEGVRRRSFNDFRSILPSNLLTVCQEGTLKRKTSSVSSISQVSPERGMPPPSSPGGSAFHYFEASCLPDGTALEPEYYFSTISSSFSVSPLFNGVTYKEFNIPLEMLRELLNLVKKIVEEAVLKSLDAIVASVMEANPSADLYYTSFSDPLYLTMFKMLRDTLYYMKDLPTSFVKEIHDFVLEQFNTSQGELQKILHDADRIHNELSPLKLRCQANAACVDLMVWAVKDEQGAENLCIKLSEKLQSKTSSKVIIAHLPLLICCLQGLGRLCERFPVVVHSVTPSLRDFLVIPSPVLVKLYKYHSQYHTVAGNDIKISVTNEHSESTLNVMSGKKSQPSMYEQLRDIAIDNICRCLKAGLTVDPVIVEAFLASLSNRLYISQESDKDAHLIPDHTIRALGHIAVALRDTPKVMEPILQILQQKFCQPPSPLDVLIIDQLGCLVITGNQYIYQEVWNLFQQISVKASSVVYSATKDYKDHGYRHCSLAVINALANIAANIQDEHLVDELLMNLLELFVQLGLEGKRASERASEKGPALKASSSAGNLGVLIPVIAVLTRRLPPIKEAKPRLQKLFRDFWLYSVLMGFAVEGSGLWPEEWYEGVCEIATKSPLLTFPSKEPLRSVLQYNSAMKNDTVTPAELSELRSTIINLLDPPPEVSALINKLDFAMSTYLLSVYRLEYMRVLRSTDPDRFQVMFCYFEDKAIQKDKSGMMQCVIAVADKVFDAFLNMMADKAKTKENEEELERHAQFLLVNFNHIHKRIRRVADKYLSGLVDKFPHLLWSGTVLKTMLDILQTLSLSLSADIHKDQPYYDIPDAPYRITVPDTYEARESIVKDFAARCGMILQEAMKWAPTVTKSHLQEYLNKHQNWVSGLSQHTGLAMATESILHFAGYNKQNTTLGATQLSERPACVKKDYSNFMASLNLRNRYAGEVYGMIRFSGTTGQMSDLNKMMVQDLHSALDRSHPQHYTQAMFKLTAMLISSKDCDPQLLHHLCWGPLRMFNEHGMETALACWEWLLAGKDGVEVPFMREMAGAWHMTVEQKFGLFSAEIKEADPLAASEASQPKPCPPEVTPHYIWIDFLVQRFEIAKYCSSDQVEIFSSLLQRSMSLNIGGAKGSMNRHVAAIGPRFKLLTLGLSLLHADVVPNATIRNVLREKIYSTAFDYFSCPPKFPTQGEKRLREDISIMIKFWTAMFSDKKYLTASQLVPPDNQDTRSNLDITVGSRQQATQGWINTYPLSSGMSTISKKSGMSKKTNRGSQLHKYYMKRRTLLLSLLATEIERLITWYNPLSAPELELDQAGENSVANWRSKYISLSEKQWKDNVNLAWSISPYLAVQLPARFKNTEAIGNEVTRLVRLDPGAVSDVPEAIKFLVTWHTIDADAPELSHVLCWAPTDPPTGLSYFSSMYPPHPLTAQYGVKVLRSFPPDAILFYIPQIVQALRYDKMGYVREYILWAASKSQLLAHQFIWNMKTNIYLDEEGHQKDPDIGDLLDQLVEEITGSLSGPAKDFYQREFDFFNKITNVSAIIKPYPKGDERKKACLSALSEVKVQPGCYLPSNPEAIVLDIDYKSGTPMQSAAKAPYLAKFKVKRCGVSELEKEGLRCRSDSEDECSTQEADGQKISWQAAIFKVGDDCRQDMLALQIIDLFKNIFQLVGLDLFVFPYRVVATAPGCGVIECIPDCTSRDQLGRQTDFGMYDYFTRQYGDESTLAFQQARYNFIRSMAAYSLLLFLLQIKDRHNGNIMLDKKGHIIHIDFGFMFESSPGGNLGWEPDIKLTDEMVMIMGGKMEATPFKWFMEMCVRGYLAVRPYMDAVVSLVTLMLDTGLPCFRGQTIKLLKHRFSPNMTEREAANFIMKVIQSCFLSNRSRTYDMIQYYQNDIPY

Chain of Casein kinase I isoform gamma-3 (Homo sapiens) (Q9Y6M4 whole entry, looked up, canonical isoform): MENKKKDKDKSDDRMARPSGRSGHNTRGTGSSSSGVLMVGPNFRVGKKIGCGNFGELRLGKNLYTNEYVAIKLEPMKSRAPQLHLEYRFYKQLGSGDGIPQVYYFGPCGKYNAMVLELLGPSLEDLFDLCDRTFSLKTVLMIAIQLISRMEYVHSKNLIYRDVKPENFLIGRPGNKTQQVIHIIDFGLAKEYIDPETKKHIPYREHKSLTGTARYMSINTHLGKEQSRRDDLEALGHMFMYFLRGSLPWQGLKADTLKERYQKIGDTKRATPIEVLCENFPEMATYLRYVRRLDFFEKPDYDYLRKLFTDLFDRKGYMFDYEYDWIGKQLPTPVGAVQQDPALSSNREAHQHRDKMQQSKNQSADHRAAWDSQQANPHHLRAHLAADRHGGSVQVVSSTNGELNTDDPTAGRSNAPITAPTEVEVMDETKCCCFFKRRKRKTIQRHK
Chain of Serine/threonine-protein kinase tousled-like 2 (Homo sapiens) (Q86UE8 whole entry, looked up): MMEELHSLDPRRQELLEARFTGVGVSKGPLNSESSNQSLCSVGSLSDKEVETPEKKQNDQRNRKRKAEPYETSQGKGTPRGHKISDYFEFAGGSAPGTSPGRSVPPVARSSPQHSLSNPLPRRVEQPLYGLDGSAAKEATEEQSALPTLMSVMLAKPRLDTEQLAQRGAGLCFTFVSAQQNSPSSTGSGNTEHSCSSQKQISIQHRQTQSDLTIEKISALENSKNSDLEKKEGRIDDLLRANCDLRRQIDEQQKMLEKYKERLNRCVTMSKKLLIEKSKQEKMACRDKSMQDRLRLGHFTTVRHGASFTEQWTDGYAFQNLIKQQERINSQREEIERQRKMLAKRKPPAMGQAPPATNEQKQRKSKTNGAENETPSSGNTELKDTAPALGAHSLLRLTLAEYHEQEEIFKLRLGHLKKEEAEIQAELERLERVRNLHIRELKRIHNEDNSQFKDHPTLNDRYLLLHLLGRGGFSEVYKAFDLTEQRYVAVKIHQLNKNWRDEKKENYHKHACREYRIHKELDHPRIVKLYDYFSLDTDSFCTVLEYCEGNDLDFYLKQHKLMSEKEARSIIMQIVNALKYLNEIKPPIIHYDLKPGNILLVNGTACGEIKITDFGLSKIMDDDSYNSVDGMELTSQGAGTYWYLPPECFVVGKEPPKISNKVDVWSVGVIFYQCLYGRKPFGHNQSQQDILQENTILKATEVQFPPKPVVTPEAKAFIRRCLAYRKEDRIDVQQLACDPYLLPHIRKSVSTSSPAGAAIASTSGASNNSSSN
Chain of Mitogen-activated protein kinase 11 (Homo sapiens) (Q15759 whole entry): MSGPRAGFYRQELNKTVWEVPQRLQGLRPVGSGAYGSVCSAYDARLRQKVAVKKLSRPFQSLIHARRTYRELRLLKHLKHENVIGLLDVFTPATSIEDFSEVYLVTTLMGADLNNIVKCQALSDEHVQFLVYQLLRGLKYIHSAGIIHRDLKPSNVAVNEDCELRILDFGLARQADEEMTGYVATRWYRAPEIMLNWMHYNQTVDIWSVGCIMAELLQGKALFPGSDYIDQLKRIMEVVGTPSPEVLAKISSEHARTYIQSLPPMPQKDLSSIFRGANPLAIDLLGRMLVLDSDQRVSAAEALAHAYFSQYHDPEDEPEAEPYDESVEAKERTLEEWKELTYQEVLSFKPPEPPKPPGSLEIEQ
Chain of Serine/threonine-protein kinase 16 (O75716 whole entry): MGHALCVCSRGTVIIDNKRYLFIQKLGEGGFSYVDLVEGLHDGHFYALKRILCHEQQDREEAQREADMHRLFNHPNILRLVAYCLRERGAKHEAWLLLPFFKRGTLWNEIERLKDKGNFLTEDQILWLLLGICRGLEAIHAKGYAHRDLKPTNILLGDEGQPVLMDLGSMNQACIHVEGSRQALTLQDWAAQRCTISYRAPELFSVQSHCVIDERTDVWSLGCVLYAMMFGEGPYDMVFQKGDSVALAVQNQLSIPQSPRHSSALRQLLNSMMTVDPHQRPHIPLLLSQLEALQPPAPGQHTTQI

SMILES: CN(C)CCOc1ccc(-c2nc(-c3ccncc3)c(-c3ccc4c(c3)CC/C4=N\O)[nH]2)cc1
- % of control [1]: 86%

SMILES: O[C@H]1CC[C@H](Nc2ncc3nc(Nc4c(F)cc(F)cc4F)n([C@H]4CCOC4)c3n2)CC1
- % of control [2]: 100%

SMILES: CNC(=O)Nc1ccc(-c2nc(N3CC4CCC(C3)O4)c3cnn(C4CCC5(CC4)OCCO5)c3n2)cc1
- % of control [3]: 48%

SMILES: N#Cc1cccc(-c2c[nH]c3ncnc(N4CCOCC4)c23)c1
- % of control [4]: 100%

- % of inhibition [5]: -26.4%
- % of inhibition [6]: 35.1%
- % of inhibition ([7]; at 0.01 µM): -6.8%
- % of inhibition ([7]; at 0.04 µM): -5.9%
- % of inhibition ([7]; at 0.2 µM): -9.3%
- % of inhibition ([7]; at 1 µM): 4%
- % of inhibition ([7]; at 5 µM): 11.1%
- % of inhibition [8]: 6.64%
- % of inhibition [9]: 10.3%
SMILES: CC[C@@H]1[C@H](F)C(=O)N[C@@H]1COc1nccc2cc(C(N)=O)c(OC)cc12 [ZIMLOVISERTIB]

SMILES: CCC(=O)N1CCN(c2ccc(-n3c(=O)ccc4cnc5ccc(-c6cnc7ccccc7c6)cc5c43)cc2C(F)(F)F)CC1
- % of control [10]: 63%
- % of control [11]: 53%

- % of inhibition [12]: -3.32%
SMILES: Cn1cc(-n2cnc3c(NCc4nc5cc(Cl)c(Cl)cc5[nH]4)nc(N4CCOCC4)nc32)cn1
